According to publication PMC4550221 (Bioorganic & medicinal chemistry, 2015):
Counter-ions that a name gives are not always drawn. Like-named read-outs stand apart in the source and are kept apart here.

Legend:
[1] = tested on: P. falciparum 3D7; conditions: read-out: reported XC50; TCAMS screening dataset; cited from earlier work
[2] = tested on: P. falciparum 3D7; test: Inhibition of parasite growth in P. falciparum 3D7-infected red blood cells; assay type: cell-based, Plasmodium falciparum; conditions: for fold loss in 3D7 potency: R8 changes relative to parent analog (4a series); for 3D7 potency described in words (relative to comparator): comparator 4e unless 4-series (4a); for IC50: Plasmodium falciparum, 3D7, Erythrocyte; for fold reduction in 3D7 potency: relative to 4e (isopentyl R1)
[3] = tested on: HepG2 cells; test: HepG2 72 h cytotoxicity; conditions: HepG2 cytotoxicity vs antimalarial activity
[4] = Rat PK experiment in vivo; conditions: iv, 1 mg/kg
[5] = tested on: Plasmodium; conditions: read-out: reported EC50; Novartis-GNF collection, GNF-Pf-5345; cited from earlier work
[6] = HepG2 72 h cytotoxicity; conditions: human, HepG2 cells

SMILES | 3D7 potency described in words (relative to comparator) [2] | other results
CCN1C(=O)N(CCC(C)C)C2(CCN(Cc3ccc(OC)cc3O)CC2)C1=O [Compound 4a] | – | IC50 [1]: 840 nM
CCN1C(=O)N(CCC(C)C)C2(CCN(Cc3cccc(OC)c3O)CC2)C1=O [Compound 4b] | – | fold loss in 3D7 potency [2]: 6 fold
CCN1C(=O)N(CCC(C)C)C2(CCN(Cc3ccccc3O)CC2)C1=O [Compound 4d] | did not have a significant impact on potency | –
CCN1C(=O)N(CCC(C)C)C2(CCN(Cc3cc(Cl)ccc3O)CC2)C1=O [Compound 4e, 8-(5-chloro-2-hydroxybenzyl)-3-ethyl-1-isopentyl-1,3,8-triazaspiro[4.5]decane-2,4-dione hydrochloride] | about a five-fold improvement in potency | selectivity index [3]: > 100; clearance [4]: 152 mL/min/kg; EC50 [5]: 349 nM; IC50 ([2]; read-out: IC50 in P. falciparum 3D7 infected erythrocytes): 310 nM
CCN1C(=O)N(CCC(C)C)C2(CCN(Cc3cccc(Cl)c3)CC2)C1=O [Compound 4f] | – | fold loss in 3D7 potency [2]: 8- to 60 fold
CCN1C(=O)N(CCC(C)C)C2(CCN(Cc3ccc(OC)cc3OC)CC2)C1=O [Compound 4g] | – | fold loss in 3D7 potency [2]: 8- to 60 fold
CCN1C(=O)NC2(CCN(Cc3cc(Cl)ccc3O)CC2)C1=O [Compound 10a] | – | fold reduction in 3D7 potency [2]: ≥ 20 fold
CCN1C(=O)N(CC)C2(CCN(Cc3cc(Cl)ccc3O)CC2)C1=O [Compound 10b] | – | fold reduction in 3D7 potency [2]: ≥ 20 fold
CCN1C(=O)N(C2CCCC2)C2(CCN(Cc3cc(Cl)ccc3O)CC2)C1=O [Compound 10c] | well tolerated | –
CCN1C(=O)N(c2ccccc2)C2(CCN(Cc3cc(Cl)ccc3O)CC2)C1=O [Compound 10d] | detrimental to potency | –
CCN1C(=O)N(Cc2ccccc2)C2(CCN(Cc3cc(Cl)ccc3O)CC2)C1=O [Compound 10e] | roughly equipotent | –
CCN1C(=O)N(CCc2ccccc2)C2(CCN(Cc3cc(Cl)ccc3O)CC2)C1=O [Compound 10f] | roughly equipotent | –
CCN1C(=O)N(Cc2ccc(OC)cc2)C2(CCN(Cc3cc(Cl)ccc3O)CC2)C1=O [Compound 10g] | tolerated with some modest effects on potency | –
CCN1C(=O)N(Cc2ccc(C#N)cc2)C2(CCN(Cc3cc(Cl)ccc3O)CC2)C1=O [Compound 10h] | tolerated with some modest effects on potency | –
CC(C)CCN1C(=O)NC(=O)C12CCN(Cc1cc(Cl)ccc1O)CC2 [Compound 11a] | dramatic loss in activity | –
CC(C)CCN1C(=O)N(C(C)C)C(=O)C12CCN(Cc1cc(Cl)ccc1O)CC2 [Compound 11b] | improved potency three-fold | –
CC(C)CCN1C(=O)N(Cc2cccnc2)C(=O)C12CCN(Cc1cc(Cl)ccc1O)CC2 [Compound 11c] | modest two-three-fold losses of potency | –
CC(C)CCN1C(=O)N(CCCc2ccncc2)C(=O)C12CCN(Cc1cc(Cl)ccc1O)CC2 [Compound 11d] | modest two-three-fold losses of potency | –
CCN1C(=O)N(CCC(C)C)C2(CCN(Cc3cc(O)cc(Cl)c3)CC2)C1=O [Compound 12a] | increasingly detrimental to 3D7 potency | –
CCN1C(=O)N(CCC(C)C)C2(CCN(Cc3cc(Br)ccc3O)CC2)C1=O [Compound 12d] | well tolerated | –
CCN1C(=O)N(CCC(C)C)C2(CCN(Cc3cc(-c4ccccc4)ccc3O)CC2)C1=O [Compound 12f] | – | IC50 at 72 h [6]: > 50000 nM
CCN1C(=O)N(CCC(C)C)C2(CCN(Cc3c(O)cccc3Cl)CC2)C1=O [Compound 12g] | essentially equipotent | –
CCN1C(=O)N(CCC(C)C)C2(CCN(Cc3ccc(Cl)cc3O)CC2)C1=O [Compound 12h] | three- to seven-fold less potent | IC50 at 72 h [6]: > 50000 nM
CCN1C(=O)N(CCC(C)C)C2(CCN(Cc3cc(Cl)cc(Cl)c3O)CC2)C1=O [Compound 12j] | equipotent | –
CCN1C(=O)N(CCC(C)C)C2(CCN(Cc3cc(Cl)c(Cl)cc3O)CC2)C1=O [Compound 12k] | – | IC50 at 72 h [6]: > 50000 nM; selectivity index [3]: greater than 500; IC50 ([2]; read-out: IC50 in P. falciparum 3D7 infected erythrocytes, 3D7 (chloroquine-sensitive) strain): 99 nM
CCN1C(=O)N(CCC(C)C)C2(CCN(C(=O)c3cc(Cl)ccc3O)CC2)C1=O [Compound 12m] | lack of 3D7 potency | –
CCN1C(=O)N(CCC(C)C)C2(CCN(Cc3cccc4cc[nH]c34)CC2)C1=O [Compound 12u] | hint of potency | –
